According to the Deep4Chem optical property database:

Experiment: solvent given as SMILES

With `CSc1sc(C(N)=O)c2nnn(C)c(=O)c12` the emission maximum (in C1CCOC1) was 496 nm, the emission maximum (in CC#N) was 505 nm and the emission maximum (in CCO) was 519 nm. The emission maximum (in CN(C)C=O) was 514 nm, the emission maximum (in CO) was 521 nm and the emission maximum (in CS(C)=O) was 527 nm.
Work on `Cc1ccc([B-]2(c3ccc(C)cc3)n3nc(C(F)(F)F)cc3-c3c4ccccc4cc[n+]32)cc1` yielded an emission maximum (in C1CCCCC1) of 407 nm, an emission maximum (in Cc1ccccc1) of 407 nm and an emission maximum (in ClCCl) of 407 nm.
For `CC(C)CCC[C@@H](C)[C@H]1CC[C@H]2[C@@H]3CC=C4C[C@@H](OC(=O)Oc5cc(/C=C/C=C/c6ccc(N(C)C)cc6)ccc5[N+](=O)[O-])CC[C@]4(C)[C@H]3CC[C@]12C`, the emission maximum (in C1CCCCC1) was 505 nm, the emission maximum (in C1CCOC1) was 677 nm and the emission maximum (in C1COCCO1) was 620 nm. For the same molecule, the emission maximum (in CCCCCCC) was 502 nm and the emission maximum (in Cc1ccccc1) was 595 nm.
`CCC(C)(C)c1ccc2c(c1)C(CC)(CC)c1cc(-c3ccc(-c4ccc5c(c4)C(CC)(CC)c4cc(C(C)(C)CC)ccc4-5)cc3)ccc1-2` showed an emission maximum (in C1CCCCC1) of 381 nm.
Work on `N#Cc1c2nc3ccccn3c2nc2nc3ccccn3c12` yielded an emission maximum (in C1CCCCC1) of 485 nm, an emission maximum (in C1COCCO1) of 505 nm and an emission maximum (in CC#N) of 525 nm. The emission maximum (in CN(C)C=O) was 540 nm and the emission maximum (in ClC(Cl)Cl) was 510 nm.
Work on `F[B-]1(F)N(c2ccccc2)c2cccc3ccc4ccc[n+]1c4c23` yielded an emission maximum (in ClCCl) of 584 nm.
Work on `CCCCC1(CCCC)c2cc(C#Cc3ccc(C=C(c4ccccc4)c4ccccc4)cc3)ccc2-c2ccc(C#Cc3ccc(C=C(c4ccccc4)c4ccccc4)cc3)cc21` yielded an emission maximum (in C1CCOC1) of 416 nm.
`NC(=O)C1=CN([C@H]2C[C@H](O)[C@@H](COP(=O)([O-])OP(=O)([O-])OC[C@H]3O[C@@H](n4cnc5c(N)ncnc54)C[C@@H]3O)O2)C=CC1` showed an emission maximum (in O) of 450 nm.
Work on `CCOC(=O)c1c(-c2cc3cc(OC)ccc3oc2=O)nn(-c2cccc(Cl)c2)c1C(=O)OCC` yielded an emission maximum (in ClCCl) of 445 nm.
`CCn1c2ccccc2c2c(C#N)c3c(ccc4c3cnn4C)nc21` showed an emission maximum (in CCOC(C)=O) of 476 nm.
For `N#Cc1nc(-c2ccc(N3c4ccccc4Oc4ccccc43)cc2)c(-c2ccc(N3c4ccccc4Oc4ccccc43)cc2)nc1C#N`, the emission maximum (in c1cc(-c2cccc(-n3c4ccccc4c4ccccc43)c2)cc(-n2c3ccccc3c3ccccc32)c1) was 610 nm.
For `CN1CCN(c2ccc3c4c(cccc24)C(=O)c2ccccc2-3)CC1`, the emission maximum (in C1CCCCC1) was 533 nm, the emission maximum (in C1CCOC1) was 593 nm and the emission maximum (in C1COCCO1) was 584 nm. For the same molecule, the emission maximum (in CC1COC(=O)O1) was 619 nm, the emission maximum (in CC#N) was 619 nm and the emission maximum (in CC(C)=O) was 615 nm. It also gave an emission maximum (in CCCCCCCCO) of 626 nm, an emission maximum (in CCCCCO) of 635 nm and an emission maximum (in CCCCO) of 632 nm. It also gave an emission maximum (in CCCO) of 637 nm, an emission maximum (in CCO) of 640 nm and an emission maximum (in CCOC(C)=O) of 595 nm. It also gave an emission maximum (in CN(C)C=O) of 621 nm, an emission maximum (in CO) of 645 nm and an emission maximum (in CS(C)=O) of 624 nm. The emission maximum (in Cc1ccccc1) was 569 nm and the emission maximum (in ClC(Cl)Cl) was 601 nm.
In the case of `CNc1cccc2c1C(=O)c1ccccc1-2`, the emission maximum (in C1CCCCC1) is reported as 497 nm, the emission maximum (in CC#N) is reported as 533 nm and the emission maximum (in CCO) is reported as 542 nm. The emission maximum (in c1ccccc1) was 519 nm.
With `Nc1ncnc2c1c(C#Cc1ccc3ccccc3c1)cn2[C@H]1C[C@H](O)[C@@H](CO)O1` the emission maximum (in CC#N) was 400 nm, the emission maximum (in CCO) was 371 nm and the emission maximum (in CCOC(C)=O) was 383 nm. The emission maximum (in CO) was 377 nm and the emission maximum (in ClC(Cl)Cl) was 374 nm.
Work on `CCCCOC(=O)c1cc(Cl)c2c3c(Cl)cc4c5c(cc(Cl)c(c6c(Oc7ccc(C(=O)OC)cc7)cc(C(=O)OCCCC)c1c26)c53)C(=O)N(c1c(C(C)C)cccc1C(C)C)C4=O` yielded an emission maximum (in Cc1ccccc1) of 560 nm.
For `COc1ccccc1C1=C2C=CC(=[N+](C)C)C=C2[Si](C)(C)c2cc(N(C)C)ccc21`, the emission maximum (in O) was 663 nm.
Work on `CCCCCCCCCCCCCCn1c(-c2cc(-c3nc4ccc(C)cc4n3CCCCCCCCCCCCCC)cc(-c3nc4ccc(C)cc4n3CCCCCCCCCCCCCC)c2)nc2ccc(C)cc21` yielded an emission maximum (in C1CCOC1) of 368.6 nm.
With `C[Si](C)(C)c1ccc(-c2ccc(-c3ccc(-c4ccc(-c5ccc([Si](C)(C)C)cc5)s4)c4nsnc34)s2)cc1` the emission maximum (in C1CCOC1) was 620 nm.
In the case of `c1cc(N2CCCC2)ccn1`, the emission maximum (in CC1CCCCC1) is reported as 313 nm, the emission maximum (in CCO) is reported as 313 nm and the emission maximum (in ClC(Cl)Cl) is reported as 313 nm.
For `COc1ccc(/C=C/c2ccc(-c3nnc(-c4ccc(-c5cc6ccccc6s5)cc4)o3)cc2)cc1`, the emission maximum (in CC#N) was 441 nm, the emission maximum (in CC(C)=O) was 449 nm and the emission maximum (in CCCCCCCC) was 407 nm. For the same molecule, the emission maximum (in CCCCCCCCCCO) was 427 nm, the emission maximum (in CCCCCCCCO) was 433 nm and the emission maximum (in CCCCCO) was 436 nm. It also gave an emission maximum (in CCCO) of 438 nm, an emission maximum (in CN(C)C=O) of 463 nm and an emission maximum (in CO) of 445 nm. It also gave an emission maximum (in CS(C)=O) of 459 nm.
With `CN1/C(=C/C=C(/C=C/c2sc3ccccc3[n+]2C)c2cc(F)cc(F)c2)Sc2ccccc21` the emission maximum (in CCO) was 670 nm, the emission maximum (in CO) was 668 nm and the emission maximum (in CS(C)=O) was 675 nm. It also gave an emission maximum (in O) of 671 nm.
Work on `CCOC(=O)c1c(-c2c(Cl)c3ccccc3oc2=O)nn(-c2ccccc2)c1C(=O)OCC` yielded an emission maximum (in ClCCl) of 406 nm.
Molecule `Fc1ccc2sc3nc(-c4ccccc4)sc3c2c1` has an emission maximum (in CS(C)=O) of 409 nm.
Molecule `CSc1ccc(/C=C/c2ccncn2)cc1` has an emission maximum (in ClCCl) of 435 nm.
For `Cc1cc(C)c(B(c2cc3c4c(c(B(c5c(C)cc(C)cc5C)c5c(C)cc(C)cc5C)cc5c4c2CCC5)CCC3)c2c(C)cc(C)cc2C)c(C)c1`, the emission maximum (in C1CCOC1) was 464.54 nm, the emission maximum (in CC#N) was 465.9 nm and the emission maximum (in CCCCCC) was 456 nm.
Work on `COC(=O)/C=C/c1sc(-c2ccc(N(C)C)cc2)c(-c2cccnc2)c1N` yielded an emission maximum (in CC#N) of 593 nm.
Work on `C[C@]12SC(=O)C=C1c1nc(-c3ccccc3)[nH]c1C1=CC(=O)S[C@@]12C` yielded an emission maximum (in CC#N) of 513 nm.
